From ChEMBL document CHEMBL4184129, “Inhibitors of nuclease and redox activity of apurinic/apyrimidinic endonuclease 1/redox effector factor 1 (APE1/Ref-1)” (Bioorg Med Chem, 2017)

Assays:
[1] = molecular target: T1, DNA repair nuclease/redox regulator APEX1 (Homo sapiens, UniProt P27695); assay: Inhibition of His-tagged human APE1 expressed in Escherichia coli M15 assessed as reduction in cleavage of 26 mer substrate to 13 mer products pre-incubated for 30 mins before substrate addition for 15 mins using 5' end [32P] AP site containing 26 mer oligonucleotide by polyacrylamide gel electrophoresis
T1 sequence (P27695 whole entry): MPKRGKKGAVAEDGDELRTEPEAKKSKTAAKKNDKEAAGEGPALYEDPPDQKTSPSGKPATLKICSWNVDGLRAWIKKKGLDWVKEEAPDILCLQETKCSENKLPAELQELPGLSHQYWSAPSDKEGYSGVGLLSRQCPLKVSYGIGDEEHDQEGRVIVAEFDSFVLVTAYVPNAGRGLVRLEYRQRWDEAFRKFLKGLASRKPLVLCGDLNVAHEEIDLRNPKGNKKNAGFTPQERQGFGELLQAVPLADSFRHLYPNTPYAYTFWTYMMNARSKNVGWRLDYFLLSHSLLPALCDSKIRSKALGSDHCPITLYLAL

[2] = molecular target: T1, DNA repair nuclease/redox regulator APEX1; assay: Inhibition of recombinant human APE1 using 5'-F-GCCCCCXGGGGACGTACGATATCCCGCTCC-3' as substrate preincubated for 10 mins followed by substrate addition measured at 5 mins intervals for 30 mins by fluorescence-based assay
[3] = molecular target: T1, DNA repair nuclease/redox regulator APEX1; assay: Inhibition of human APE1 measured every 5 mins for 60 mins by FAM fluorophore based fluorescence assay
[4] = molecular target: T1, DNA repair nuclease/redox regulator APEX1; assay: Inhibition of human APE1 using a 5'-TAMRA labelled THF abasic site double-stranded oligodeoxynucleotide as substrate in presence of Mg2+ by fluorescence polarization displacement assay
[5] = molecular target: T1, DNA repair nuclease/redox regulator APEX1; assay: Inhibition of recombinant human APE1 using a 5'-FAM/3'-Dabsyl labelled double-stranded DNA as substrate after 30 mins by fluorescence-based assay
[6] = tested on: Panel NCI-60 (60 carcinoma cell lines); assay: Growth inhibition in human NCI60 cells after 72 hrs by CellTiterGlo assay; type: functional
[7] = molecular target: T1, DNA repair nuclease/redox regulator APEX1; assay: Inhibition of nuclease activity of APE1 in human glioblastoma cells assessed as reduction in AP site DNA cleavage; type: cell-based
[8] = molecular target: T1, DNA repair nuclease/redox regulator APEX1; assay: Inhibition of […] activity of full length N-terminal hexa-His SUMO-fused human APE1 using HEX-labeled THF oligonucleotide as substrate preincubated for 30 to 120 mins followed by substrate addition measured after 15 mins by fluorescence assay
[9] = molecular target: T1, DNA repair nuclease/redox regulator APEX1; assay: Inhibition of human APE1 assessed as reduction in abasic sites DNA cleavage using 6-FAM/TAMRA labelled 17-Tphi as substrate by fluorescence-based assay
[10] = molecular target: T1, DNA repair nuclease/redox regulator APEX1; assay: Binding affinity to full length human APE1 expressed in Escherichia coli BL21/DE3
[11] = molecular target: T1, DNA repair nuclease/redox regulator APEX1; assay: Inhibition of N-terminal hexa-His tagged human APE1 expressed in Escherichia coli BL21 (Rosetta) using fluorescein-dabcyl-containing oligonucleotide as substrate measured over 5 mins by high-throughput fluorescence assay
[12] = molecular target: T1, DNA repair nuclease/redox regulator APEX1; assay: Inhibition of APE1 in human HeLa cells assessed as reduction in AP site cleavage 5'-[gamma-32P]CTCGCAAGUGGGTACCGA-3' as substrate after 1 hr; type: cell-based
[13] = molecular target: T1, DNA repair nuclease/redox regulator APEX1; assay: Inhibition of APE1 in human HeLa cells; type: cell-based

COc1ccc(CNC(=O)c2cccc(C(=O)O)c2OC)cc1OC
IC50 [1]: 18000 nM

COc1c(C(=O)O)cccc1C(=O)NCc1cccc(Cl)c1
IC50 [1]: 16000 nM

O=C(c1cc2ccccc2o1)[C@@H](O)c1nc2ccccc2s1
IC50 [2]: 2000 nM

Nc1c(S(N)(=O)=O)cc(S(N)(=O)=O)cc1S(N)(=O)=O
IC50 [3]: 1400 nM

COc1cc2c(ccc3cc(OC)c(OC)c(O)c32)cc1O
IC50 [4]: 400 nM

O=[N+]([O-])c1cccc(S(=O)(=O)[N-]c2nc3ccccc3nc2-[n+]2ccc(Cc3ccccc3)cc2)c1
IC50 [5]: 6800 nM

CCn1c2ccccc2c2cc(/C=N/Nc3cc(C)nc4cc5c(cc34)OCO5)ccc21
GI50 [6]: 4200 nM

C=C1S/C(=N\c2ccccc2Cl)N(C(=O)c2sc3ccccc3c2Cl)C12CCCCC2
IC50 [7]: 1400 nM

CC(C)(C)c1ccc(S(=O)(=O)Oc2ccc(-c3ccc(Oc4c(Cl)cccc4[N+](=O)[O-])cc3)cc2)cc1
IC50 [7]: 1700 nM

CCOC(=O)c1cc(-c2ccc(/C=C3/C(=O)N(c4ccc(C(=O)O)cc4)N=C3C)o2)ccc1Cl
IC50 [4]: 6800 nM

O=C1NC(=O)N(Cc2ccco2)C(=O)/C1=C/C=C/c1ccco1
IC50 [4]: 2800 nM

CCCCCCCCC/C(=C\C1=C(C)C(=O)C(OC)=C(OC)C1=O)C(=O)NOC
IC50 [8]: 8500 nM

c1cc2ccc3cc2cc1CNCCOCCNCc1ccc2ccc(cc2c1)CNCCOCCNC3
IC50 [9]: 55 nM

Cc1sc(Nc2cc(Cl)cc(Cl)c2)nc1-c1ccc(-c2ccccc2F)cc1
IC50 [7]: 900 nM

O=c1oc(-c2ccccc2F)nc2cc(Cl)ccc12
IC50 [7]: 1600 nM

O=S(=O)(Oc1ccc(-c2ccc(OS(=O)(=O)c3ccc(Cl)c(Cl)c3)cc2)cc1)c1ccc(Cl)c(Cl)c1
IC50 [7]: 1800 nM

Brc1cc(-c2cc(Br)c(Br)c(Br)c2)cc(Br)c1Br
IC50 [7]: 200 nM

Cc1coc2c1C(=O)C(=O)c1c-2ccc2c1CCCC2(C)C [TANSHINONE IIA]
Kd [10]: 0.88 nM

Cc1ccc(C)n1-c1ccc(OCC(=O)O)cc1
IC50 [11]: 1700 nM

O=C(O)c1cc2cccc([N+](=O)[O-])c2[nH]1
IC50 [12]: 3060 nM

c1cc2ccc3cc2cc1CNCCNCCNCc1ccc2ccc(cc2c1)CNCCNCCNC3
IC50 [9]: 57 nM

O=C(Nc1cccc(Cl)c1)c1noc2c1CCC2
IC50 [11]: 1600 nM

O=C(CSc1ncn[nH]1)Nc1cccc2c1C(=O)c1ccccc1C2=O
IC50 [13]: 4000 nM

COc1cccc(CNC(=O)c2cccc(C(=O)O)c2OC)c1
IC50 [1]: 19000 nM

COc1c(C(=O)O)cccc1C(=O)NCc1ccc(Cl)c(Cl)c1
IC50 [1]: 18000 nM

O=C(OCC(=O)N1NC(c2ccc3ccccc3c2)=C[C@@H]1c1ccccc1)c1ccc([N+](=O)[O-])s1
IC50 [2]: 3000 nM

Cc1sc(-c2ccc(Cl)cc2)nc1-c1ccc(-c2ccccc2F)cc1
IC50 [7]: 1300 nM

O=C(O)CC[C@H]1N[C@@]2(C(=O)Nc3c(Cl)cccc32)[C@H]2C(=O)N(Cc3ccc4c(c3)OCO4)C(=O)[C@@H]12
IC50 [5]: 1800 nM

CC(C)(C)c1ccc(OC(=O)c2sc3ccccc3c2Cl)c(C(C)(C)C)c1
IC50 [7]: 800 nM

Cc1cc(C)c2c(N)c3cccc(C)c3nc2n1
IC50 [11]: 2100 nM

O=c1oc(-c2ccc(Cl)cc2Cl)nc2ccc([N+](=O)[O-])cc12
IC50 [7]: 2000 nM

CC1=C/C(=C(/c2ccc(O)c(C)c2)c2ccccc2C(=O)O)C=CC1=O
IC50 [3]: 1700 nM
